Results: paper PMC10080127, “Metabolic stability and metabolite profiling of emerging synthetic cathinones” (Frontiers in Pharmacology, 2023)

Key:
[1] = Metabolic stability (substrate depletion) in human liver microsome Phase I incubations; conditions: for intrinsic clearance (CLint): HLM incubations, scaled with 45 mg microsomal protein/g liver and 26 g liver/kg b.w.; for half-life at 10 μM: human, human liver microsomes
[2] = Phase II (glucuronidation) metabolite generation in alamethicin-induced HLM with NADPH and UDPGA; type: in vitro ADME, human; conditions: 2 h, LC-HRMS/MS
Protocol: For the generation of Phase II metabolites, alamethicine-induced HLM ([Fisher et al., 2000]) were used in the presence of Phase I and glucuronidation co-factor. Briefly, HLM (1 mg/mL) were preincubated for 15 min, in ice, with alamethicin (25 μg/mL) in 50 mM ABIC buffer at pH 7.4, for a total incubation volume of 200 μL. Following the addition of MgCl2 (2 mM; 1 μL) and selected cathinone (10 μM final concentration), the resulting solution was incubated for 5 min at 37°. NADPH (5 mM) and UDPGA (5 mM) were then added to start the Phase I and II reactions. Incubations were run in duplicate.
An in-house accurate mass library was first built, considering the metabolic pathways already known for other structurally similar cathinones, and a targeted screening was then carried out by performing extracted ion chromatograms (EIC), with a mass window of ±5 ppm, for the protonated/deprotonated molecules of the expected metabolites in the full scan spectra. Isotope cluster analysis was also used to identify chlorinated metabolites. All spectra corresponding to metabolites were then manually checked. The mass deviation from the accurate mass of the identified cathinone metabolites remained below 5 ppm for the precursor and below 10 ppm for product ions. Candidates present in control incubations and/or without MS/MS data were excluded. […] Metabolites were ranked based on their relative abundance over incubation time (Figures 2–9). The relative abundance was calculated by the ratio of the relative area of each metabolite and the sum of the relative areas obtained for all metabolites and for the respective parent cathinone.

[3] = set-up: method as in Wagmann et al., 2020; conditions: ref Wagmann et al., 2020; cited from earlier work
[4] = pH 7.4, half-life (t1/2), HLM 1 mg/mL, cathinone 10 μM, NADPH, 37°C, pH 7.4
[5] = pH 7.4, clearance classification based on t1/2, HLM, scoring proposed by McNaney et al. (2008)

Row | Structure (SMILES) | intrinsic clearance (CLint) [1] | half-life at 10 μM [1, 4] | Phase II (glucuronide) metabolites identified [2] | half-life (t1/2) reported [3] | half-life at 10 μM [1, 5]
1 | CC(C)NC(C)C(=O)c1cccc(Cl)c1 (stereo not shown) [3-CIC, 3′-chloro-N-isopropylcathinone] | 34 mLmin^−1 kg^−1 | 24 min |  |  | 
2 | CNC(C)C(=O)c1cccc(Cl)c1 (stereo not shown) [3-CMC, 3′-chloromethcathinone] | 15 mLmin^−1 kg^−1 | 54 min | No Phase II metabolites were identified |  | 
3 | CCNC(C)C(=O)c1ccc(Cl)cc1 (stereo not shown) [4-CEC, 4-chloroethcathinone] |  |  |  | 105 min | 
4 | CC(C)NC(C)C(=O)c1ccc(Cl)cc1 (stereo not shown) [4-CIC, 4′-chloro-N-isopropylcathinone] | 22 mLmin^−1 kg^−1 | 36 min |  |  | 
5 | CNC(C)C(=O)c1ccc(Cl)cc1 (stereo not shown) [4-CMC, 4′-chloromethcathinone] | 10 mLmin^−1 kg^−1 | 78 min | no Phase II metabolite was identified |  | > 60 min
6 | CCC(C(=O)c1ccc(C)cc1)N(C)C (stereo not shown) [4-MDMB, 4′-methyl-N,N-dimethylbufedrone] | 54 mLmin^−1 kg^−1 | 15 min | No Phase II metabolite was detected |  | < 20 min
7 | CCCC(C(=O)c1ccc(C)cc1)N(C)C (stereo not shown) [4-MDMP, 4′-methyl-N,N-dimethylpentedrone] | 18 mLmin^−1 kg^−1 | 46 min | No Phase II metabolites were identified |  | 
8 | CCCC(NCC)C(=O)c1ccc(C)cc1 (stereo not shown) [4-MEAP, 4′-methyl-N-ethylnorpentedrone] | 33 mLmin^−1 kg^−1 | 24 min | no glucuronide metabolite was identified |  | 
9 | CCNC(CC)C(=O)c1ccc(C)cc1 (stereo not shown) [4-MNEB, 4′-methyl-N-ethylbufedrone] | 16 mLmin^−1 kg^−1 | 55 min | No Phase II metabolites were identified |  | 
